Converted amounts (≈) assume the structure as drawn. Where a SMILES comes first, the peptide text is derived from it. Bridges are numbered along the chain shown (N, C = ends). Roman numbers before positions name the chains, in order.
Columns and labels:
L929 cells = test: Cytotoxic activity (WST-1 cell viability assay); assay type: cell-based, mouse; conditions: 24 h treatment, WST-1, OD 460 nm
Method: The cytotoxicity of hybrid peptides was evaluated in mouse […] cells (L929, Korean Collection for Type Cultures, KCTC). L929 cells in RPMI1640-10% FBS (100 μL, 3 × 10^5 cells/ml) were seeded in 96-well plates and cultured at 37°C for 24 h in a 5% CO2 incubator. The L929 cells were treated with peptides at predetermined concentrations for 24 h, and 10 μl of EZ-Cytox Cell Viability Assay solution WST-1® (Daeil Lab Service, Korea) were added to each well. Three hours later, the cytotoxicity of peptides against L929 cells was assessed by measuring the optical density at 460 nm using a Perkin Elmer 2030 Reader (Victor X3).

[1] = tested on: all tested Candida strains; assay type: cell-based; conditions: 4 h
Method: To determine the candidacidal activity of the peptides, we used Candida strains obtained from the Culture collection of antimicrobial resistant microbes at Seoul Women’s University in Korea. These included three Candida albicans (CCARM 14020, 14021, 14022), Candida guillermondi and Candida tropicalis. In addition, Candida albicans SC5413 was kindly provided by Dr Jeong-Yoon Kim at the Department of Microbiology & Molecular Biology, Chungnam University, Korea. Yeast were cultured overnight at 30°C in 10 ml of yeast extract-peptone-dextrose (YPD) broth (Qbiogene), then diluted in 10 ml of YPD broth to OD600 = 0.2 and grown for an additional 4 h with shaking at 30°C until OD600 = 0.8 in order to obtain mid-log phase cultures. The peptides (Hst 5, P113, HHP1, HHP2, PH1, PH2, di-PH1, di-PH2, WP1, di-WP2, di-15Hc and di-18Hc) in this study were synthesized by using standard solid-phase synthesis protocols and were purified by reversed-phase high-performance liquid chromatography at Anygen Inc. (Korea). FITC-labeled peptides (F-Hst5, F-P113, F-HHP1, F-di-PH2, F-di-WP2 and F-di-18Hc) were also synthesized by 6-aminohexnoic acid linker at Anygen (Korea) for confocal experiments.
The candidacidal activities of the peptides were tested by using standard microdilution plate assays, radial diffusion assays and broth dilution assay slightly modified from the procedure recommended by the National Committee for Clinical Laboratory Standards. For the candidacidal assays, C. albicans cells were grown in YPD medium and washed twice with 10 mM sodium phosphate buffer (NaPB; Na2HPO4, NaH2PO4, pH 7.4). The cells (1 x 10^6) were then mixed with different concentrations of peptides and incubated at 30°C with constant shaking for 60 min. For energy depletion experiments, cells were pre-incubated with 10 mM NaPB containing 5 mM NaN3 at 30°C for 60 min before the addition of peptides. The cell suspensions were diluted in 10 mM NaPB and aliquots of 500 cells were spread onto YPD agar plates then incubated for 24 h at 30°C to visualize the surviving colonies. Cell survival was expressed as a percentage of that for the control, and the loss of viability was calculated as [1 x (number of colonies from peptide-treated cells/number of colonies from control cells)] x 100. Candidacidal assays were performed in triplicate. For the radial diffusion assay, C. albicans cells were grown in YPD medium overnight and washed twice with 10 mM NaPB. Washed yeast-phase C. albicans cells (1 x 10^6 CFU) were trapped in thin underlay gels containing 9 mM sodium phosphate, 1 mM sodium citrate buffer, 1% (wt/vol) agarose (A6013; Sigma), and 0.3 mg of Sabouraud dextrose broth (Difco)/ml. After incubation at 37°C for 3 h, a 10 ml overlay gel of 1% agarose and 6% Sabouraud dextrose broth was poured on the underlay gel and then the plates were incubated overnight at 37°C. The clear-zone diameters were measured to the nearest 0.1 mm and graphed against the peptide concentration. Zone diameters were expressed in units (0.1 mm = 1 unit). For the broth dilution assay, the Candida strains were cultured in LYM broth for 18 h at 30°C. The numbers of yeasts were counted using a hemocytometer. Stock peptide solutions were prepared to a concentration of 320 μg/ml in distilled water, and were then serially diluted twofold, to 5 μg/ml. 100 μl aliquots of the diluted culture media containing candida cells (1 x 10^3) were dispensed into the wells of 96-well polypropylene microtiter plates (Costar 3879, Corning, NY), to which peptide solution (11 μl) was then added. In the experiments conducted to assess the candidacidal activity of peptides in the presence of salt, we used LYM supplemented with 150 mM NaCl for the culture medium, which was mixed with the peptide solution. The antifungal activities were evaluated after 24 h of incubation at 30°C by the observation of visible turbidity the wells. […]

CC(C)C[C@H](NC(=O)CNC(=O)[C@H](Cc1c[nH]cn1)NC(=O)[C@H](Cc1c[nH]cn1)NC(=O)[C@H](CC(C)C)NC(=O)[C@H](CC(C)C)NC(=O)[C@H](C)NC(=O)[C@H](CC(N)=O)NC(=O)[C@H](CC(C)C)NC(=O)[C@@H](N)Cc1c[nH]c2ccccc12)C(=O)N[C@@H](CC(N)=O)C(=O)N[C@@H](CSSC[C@H](NC(=O)[C@H](CC(N)=O)NC(=O)[C@H](CC(C)C)NC(=O)CNC(=O)[C@H](Cc1c[nH]cn1)NC(=O)[C@H](Cc1c[nH]cn1)NC(=O)[C@H](CC(C)C)NC(=O)[C@H](CC(C)C)NC(=O)[C@H](C)NC(=O)[C@H](CC(N)=O)NC(=O)[C@H](CC(C)C)NC(=O)[C@@H](N)Cc1c[nH]c2ccccc12)C(=O)N[C@@H](C)C(=O)N[C@@H](CCCCN)C(=O)NCC(=O)N[C@H](C(=O)N[C@@H](CC(C)C)C(=O)N[C@@H](C)C(N)=O)C(C)C)C(=O)N[C@@H](C)C(=O)N[C@@H](CCCCN)C(=O)NCC(=O)N[C@H](C(=O)N[C@@H](CC(C)C)C(=O)N[C@@H](C)C(N)=O)C(C)C [di-18Hc, reference compound] (I: H-WLNALLHHGLNCAKGVLA-NH2 / II: H-WLNALLHHGLNCAKGVLA-NH2; disulfide I:12-II:12 (inferred); N-terminus assumed)
CC50 (L929 cells): 72.385 µg/mL (≈ 18.8 µM)

CC(C)C[C@H](NC(=O)CNC(=O)[C@H](Cc1c[nH]cn1)NC(=O)[C@H](Cc1c[nH]cn1)NC(=O)[C@H](CCCNC(=N)N)NC(=O)[C@H](CCCCN)NC(=O)[C@H](C)N)C(=O)N[C@@H](CC(N)=O)C(=O)N[C@@H](CSSC[C@H](NC(=O)[C@H](CC(N)=O)NC(=O)[C@H](CC(C)C)NC(=O)CNC(=O)[C@H](Cc1c[nH]cn1)NC(=O)[C@H](Cc1c[nH]cn1)NC(=O)[C@H](CCCNC(=N)N)NC(=O)[C@H](CCCCN)NC(=O)[C@H](C)N)C(=O)N[C@@H](C)C(=O)N[C@@H](CCCCN)C(=O)N[C@@H](Cc1ccccc1)C(=O)N[C@@H](Cc1c[nH]cn1)C(N)=O)C(=O)N[C@@H](C)C(=O)N[C@@H](CCCCN)C(=O)N[C@@H](Cc1ccccc1)C(=O)N[C@@H](Cc1c[nH]cn1)C(N)=O [di-PH2] (I: H-AKRHHGLNCAKFH-NH2 / II: H-AKRHHGLNCAKFH-NH2; disulfide I:9-II:9 (inferred); N-terminus assumed)
MIC values [1]: 1 to 2 µg/mL

CC(C)C[C@H](NC(=O)[C@@H](N)Cc1c[nH]c2ccccc12)C(=O)N[C@@H](CC(N)=O)C(=O)N[C@@H](C)C(=O)N[C@@H](CCCCN)C(=O)N[C@@H](CCCNC(=N)N)C(=O)N[C@@H](Cc1c[nH]cn1)C(=O)N[C@@H](Cc1c[nH]cn1)C(=O)NCC(=O)N[C@@H](Cc1ccc(O)cc1)C(=O)N[C@@H](CCCCN)C(=O)N[C@@H](CSSC[C@H](NC(=O)[C@H](CCCCN)NC(=O)[C@H](Cc1ccc(O)cc1)NC(=O)CNC(=O)[C@H](Cc1c[nH]cn1)NC(=O)[C@H](Cc1c[nH]cn1)NC(=O)[C@H](CCCNC(=N)N)NC(=O)[C@H](CCCCN)NC(=O)[C@H](C)NC(=O)[C@H](CC(N)=O)NC(=O)[C@H](CC(C)C)NC(=O)[C@@H](N)Cc1c[nH]c2ccccc12)C(=O)N[C@@H](CCCCN)C(=O)N[C@@H](Cc1ccccc1)C(=O)N[C@@H](Cc1c[nH]cn1)C(N)=O)C(=O)N[C@@H](CCCCN)C(=O)N[C@@H](Cc1ccccc1)C(=O)N[C@@H](Cc1c[nH]cn1)C(N)=O [di-WP2] (I: H-WLNAKRHHGYKCKFH-NH2 / II: H-WLNAKRHHGYKCKFH-NH2; disulfide I:12-II:12 (inferred); N-terminus assumed)
MIC values [1]: 2 to 4 µg/mL

Source: publication PMC4769088, “Antifungal Activity and Action Mechanism of Histatin 5-Halocidin Hybrid Peptides against Candida ssp” (PLoS ONE, 2016)
